According to article PMC12344774, “Ferrocenyl Quinoline-Benzimidazole Hybrids: A Multistage Strategy to Combat Drug-Resistant Malaria” (Inorganic Chemistry, 2025):
Several values for one entry are separate records, joined by “and”; a condition that tells them apart may be missing. Identical values can stand only once.

Columns and labels:
[1] = tested on: Mature gametocytes (>95% stage V); assay: microbe, parasite or virus in culture; format: cell-based, Plasmodium falciparum; conditions: 48 h drug pressure; for % Inhibition, mature gametocytes: maximum inhibition at 10 μM
Description: (§1) Compounds are diluted 3-fold in at least a 9-point serial dilution series starting at 20 μM, with a nonlethal DMSO concentration of <0.1% maintained. Luciferase activity was determined in 30 μL parasite lysates by adding 30 μL luciferin substrate (Promega Luciferase Assay System) at room temperature and detection of resultant bioluminescence at an integration constant of 10 s with the GloMax-Multi + Detection System with Instinct Software. Methylene blue (5 μM) and the clinical antimalarial candidate MMV390048 (5 μM) were used as controls. IC50 values were determined in GraphPad Prism using a nonlinear regression fit with variable slope (4-parameter) on the dose–response data.
(§2) Assay quality parameters are evaluated for each assay, including Z′-factors (data quality compared to reproducibility using signal, noise, and background parameters; accepted metric >0.6), regression (accepted r 2 > 0.9); >80% viable parasites (top plateau); <20% killed parasites (bottom plateau), hill slope ∼1.

[2] = tested on: Immature gametocytes (>90% stage II/III); assay: microbe, parasite or virus in culture; format: cell-based, Plasmodium falciparum; conditions: 48 h drug pressure; for % Inhibition, immature gametocytes: maximum inhibition at 10 μM
Description: as §1, §2

PfNF54 = assay: In vitro ABS antiplasmodial activity, pLDH assay, drug-sensitive NF54; format: cell-based, Plasmodium falciparum; conditions: drug-sensitive NF54, ABS, pLDH, 48 h incubation; read-out: PfNF54 IC50 ± SEM
Text: (§3) This side chain is also present in the well-known antiplasmodial agent, FQ.
(§4) Test samples were screened in technical duplicate or triplicate, for three or four biological replicates, for their in vitro blood stage antiplasmodial activity against both the drug-sensitive (NF54) and multidrug-resistant (K1) strains of . Continuous in vitro cultures of asexual erythrocyte stages of were maintained using a modified method of Trager and Jensen. A quantitative assessment of the in vitro antiplasmodial activity was determined via the parasite lactate dehydrogenase (pLDH) assay, using a modified method described by Makler and Hinrichs.
(§5) The test samples were prepared to a 20 mg/mL stock solution in 100% DMSO. Stock solutions were stored at −20 °C. Further dilutions were prepared in complete medium on the day of the experiment. […] Chloroquine diphosphate (CQDP) was used as the reference drug in all experiments. Test samples were tested at a starting concentration of either 100 μg/mL, 50 μg/mL, 10 μg/mL, or 1 μg/mL, which was then serially diluted 2-fold, in complete medium, to give 10 concentrations. The same dilution technique was used for all samples. […] The IC50 values were obtained from full dose–response curves, using a nonlinear dose–response curve fitting analysis, via GraphPad Prism v.5 software.

[3] = Cyclic voltammetry of the ferrocene/ferrocenium couple; format: physicochemical; conditions: for Reversibility of the ferrocene/ferrocenium couple: DCM/0.1 M TBAP system
Description: It has been proposed that the oxidation of ferrocene (Fe(C5H5)2) to the ferrocenium cation (Fe(C5H5)2 ^+) is a reversible one-electron transfer process. […] This prompted the investigation into the electrochemical properties of the Fe(C5H5)2/Fe(C5H5)2 ^+ couple in complexes C1–C5, using cyclic voltammetry. FQ was used as the reference, as it is considered the benchmark for all newly developed ferrocenyl-based antiplasmodials.
Nuclear magnetic resonance (NMR) spectra were recorded on a Bruker XR600 MHz spectrometer (^1H at 599.95 MHz and ^13C{^1H} at 151.0 MHz), a Bruker […] (^1H at 400.22 MHz and ^13C{^1H} at 100.65 MHz), or a Varian Mercury 300 (^1H at 300.08 MHz) spectrometer. These were equipped with a Bruker Biospin GmbH casing and sample injector at 30 °C and tetramethylsilane (TMS) was used as the internal standard. Coupling constants are reported in Hz and chemical shifts are reported in ppm relative to residual solvent signals. Infrared (IR) spectroscopy was performed on a PerkinElmer Spectrum 100 FT-IR spectrometer, using attenuated total reflectance (ATR), with vibrations measured in units of cm^–1. Cyclic voltammetric measurements were carried out at ambient temperature under an inert argon atmosphere using a three-electrode system on a BASi Epsilon Eclipse potentiostat/galvanostat electrochemical workstation. The C-3 cell stand, equipped with a glassy carbon working electrode, Ag/AgCl (saturated NaCl) reference electrode, and a Pt wire auxiliary electrode were used to carry out electrochemical measurements. All experiments were carried out in anhydrous dichloromethane containing 0.10 M tetra-n-butylammonium perchlorate (TBAP) as the supporting electrolyte.

[4] = Hydroxyl radical (ROS) generation with H2O2, DCFH2 fluorescent probe; conditions: 200 μM in 1:4 DMSO/PBS, H2O2 and H2DCF added, 30 min
Text: Fluorogenic redox-sensitive probes are often employed to measure the presence of ROS, due to their low cost, ease of use, and nontoxicity, allowing for spectrofluorimetric measurements. 2′,7′-Dichlorodihydrofluorescein diacetate (DCFH2-DA) is the most widely used fluorogenic probe. Cleavage of the acetate groups, through alkaline hydrolysis, generates 2′,7′-dichlorodihydrofluorescein (DCFH2), which in the presence of oxidants, yields the highly fluorescent 2′,7′-dichlorofluorescein (DCF, λem = 523 nm). The DCFH2 probe reacts with an array of oxidants, making it an ideal indicator of general oxidative stress. […] The presence of these radicals was confirmed by monitoring the fluorescence over time (Figure ). […].
Stock solutions of DCFH2-DA were prepared to 1 mM in 100% DMSO and stored at −20 °C in the dark until use. The deacetylation of DCFH2-DA involved adding 2 μL of a 0.5 M NaOH solution to 200 μL of the 1 mM DCFH2-DA stock solution. The solution was mixed for 30 min, in the dark, at room temperature and then quenched with 800 μL of PBS buffer to obtain a 200 μM H2DCF 1:4 DMSO/PBS solution mixture.
[…]. The fluorometer was blanked using a 1:4 DMSO/PBS solution mixture. To identify hydroxyl radical production, 2 μL of a 0.5% H2O2 solution was added to 900 μL of the 200 μM complex solution in a cuvette at 25 °C. 100 μL of the prepared H2DCF solution (200 μM) was quickly added, and the readings recorded at 530 nm (emission wavelength), at 2 min intervals, over 30 min.

PfK1 = assay: microbe, parasite or virus in culture; format: cell-based, Plasmodium falciparum; conditions: MDR K1, ABS, pLDH, 48 h incubation; read-out: PfK1 IC50 ± SEM
Text: as §3, §4, §5

[5] = scan rate 100 mV/s, CH2Cl2, 0.1 M TBAP
[6] = vs Ag/AgCl, scan rate 100 mV/s, CH2Cl2, 0.1 M TBAP

Compound | % Inhibition, mature gametocytes [1] | % Inhibition, immature gametocytes [2] | IC50 (PfNF54) | Reversibility of the ferrocene/ferrocenium couple [3] | Ipc/Ipa [3, 5] | ΔE [3, 5] | Anodic peak potential Epa [3, 6] | Cathodic peak potential Epc [3, 6] | Half-wave potential E1/2 [3, 6] | Hydroxyl radical generation (fluorescence intensity over time) [4] | IC50 (PfK1) | IC50 ([1]; read-out: IC50 ± S.E., mature gametocytes) | IC50 ([2]; read-out: IC50 ± S.E., immature gametocytes)
Cc1ccc2c(c1)nc(-[c-]1cccc1)n2CCCNc1ccnc2cc(Cl)ccc12.[Fe+2].c1cc[cH-]c1 [Complex C1, 7-chloro-N-(3-(5-(methyl)-2-ferrocenyl-1H-benzo[d]imidazole-1-yl)propyl)quinolin-4-amine] | 7% | 3% | 9910 ± 710 nM | chemically and electrochemically reversible | 1.04 | 0.127 V | 0.638 V | 0.510 V | 0.574 V | no changes in the fluorescence intensity | 6290 ± 510 nM | – | –
Cc1ccc2c(c1)nc(-[c-]1cccc1CN(C)C)n2CCCNc1ccnc2cc(Cl)ccc12.[Fe+2].c1cc[cH-]c1 (centres unmarked) [Complex C3, 7-Chloro-N-(3-(5-methyl-2-(2-N,N-dimethylaminomethyl)ferrocenyl-1H-benzo[d]-imidazole-1-yl)propyl) Quinoline-4-amine] | 99% | 88% | 25 ± 1 nM | chemically and electrochemically irreversible | – | – | 0.678 V | – | – | produce hydroxyl radicals | 110 nM and 113 nM | 7270 nM | 2350 nM
